According to patent publication US10912841B2, “Antibody-drug-conjugate and its use for the treatment of cancer” (PIERRE FABRE MEDICAMENT, priority 2014, dated 2021):
Where a SMILES comes first, the peptide text is derived from it. [ ]: non-standard residue; d: D form. The star is where a group is joined. Dolaproine = CO[C@@H]([C@@H]1CCCN1)[C@@H](C)C(=O)O; Dil = CC[C@H](C)[C@H](NC)[C@@H](CC(=O)O)OC; X2 = CC(C)[C@@H](C(=O)*)N(C)CCc1ccc(O)cc1

Experiments:
[1] = system: A549 cells; assay: ATPLITE antiproliferative assay, A549; format: cell-based; settings: Homo sapiens, 72 h drug treatment
Experimental: (§1) A549 (Non Small Cell Lung Cancer—ATCC® CCL-185™) and MDA-MB-231 (breast adenocarcinoma—ATCC® HTB-26m) cells were cultured in Minimum Essential Medium Eagle (MEM) with 5% fetal calf serum (FCS) and Dulbecco's modified Eagle Medium (DMEM) with 10% FCS respectively. MCF7 (breast ductal carcinoma—ATCC® HTB-22m) and SN-12C (kidney carcinoma—ATCC) cells were maintained in RPMI1640 medium (without phenol red for MCF7 cells) containing 10% FCS. All the media were supplemented with fungizone (1.25 μg/mL) and penicillin-streptomycin (100 U/100 μg/mL). Cells were cultured under standard conditions in an incubator at 37° C., 5% CO2 and 95% atmospheric humidity.
(§2) Selected drugs were investigated for their antiproliferative activity using an ATPLITE® proliferation assay (Perkin Elmer, Villebon sur Yvette, France) on a comprehensive panel of 4 cell lines. […] On day 4, cell viability was evaluated by dosing the ATP released by viable cells. The number of viable cells was analyzed in comparison with the number of solvent treated cells. The EC50 values were determined with curve fitting analysis (non linear regression model with a sigmoidal dose response, variable hill slope coefficient), performed with the algorithm provided by the […]® Software ([…]® Software Inc., CA, USA).

[2] = system: MDA-MB-231 cells; assay: ATPLITE antiproliferative assay, MDA-MB-231; format: cell-based; settings: Homo sapiens, 72 h drug treatment
Experimental: as §1, §2

Question: How did the EC50 [1] turn out when CC[C@H](C)[C@@H]([C@@H](CC(=O)N1CCC[C@H]1[C@H](OC)[C@@H](C)C(=O)N[C@@H](Cc1ccccc1)C(=O)OC)OC)N(C)C(=O)[C@@H](NC(=O)[C@H](C(C)C)N(C)CCc1ccc(O)cc1)C(C)C [Compound 27, methyl (S)-2-((2R,3R)-3-((S)-1-((3R,4S,5S)-4-((S)-2-((S)-2-((4-hydroxyphenethyl)(methyl)amino)-3-methylbutanamido)-N,3-dimethylbutanamido)-3-methoxy-5-methylheptanoyl)pyrrolidin-2-yl)-3-methoxy-2-methylpropanamido)-3-phenylpropanoate, trifluoroacetic acid] (X2-V[Dil][Dolaproine]F-OMe) was run?
Answer: Its EC50 is 0.086 nM.

Question: What about the EC50 [2] of the same molecule?
Answer: The EC50 was 0.12 nM.
